Source: patent US20240262842A1, “SMALL MOLECULE INHIBITORS OF KRAS G12C MUTANT” (Merck Sharp & Dohme LLC, priority 2021, published 2024)
Where two headings read alike, the source gives them in different places.

Columns and labels:
[1] = system: MIA PaCa-2 cells; assay: Growth inhibition activity on KRAS-G12C mutant cell line (CellTiter-Glo 3D); format: cell-based, human; settings: Homo sapiens, MIA PaCa-2, 72 h, MIA PaCa-2, 3-day culture with compound; Table 3
Procedure, shortened: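 MIA PaCa-2 cells in RPMI1640 with 10% FBS, U-bottom wells, cultured 1 day before compound (0.2% DMSO final), then 3 days at 37 °C, 5% CO2. Viability by CellTiter-Glo 3D luminescence; growth inhibition versus untreated wells gives IC50 (nM).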

[2] = biological target: T1, interaction between GMPPNP-bound recombinant K-Ras4B G12C mutant protein and cRAF RAS-binding domain (cRAF-RBD) (Homo sapiens, UniProt P01116, G12C); assay: Inhibitory activity on interaction between KRAS G12C and cRAF (Alpha technology); settings: Table 2
T1 construct: His-tag (N)
T1 sequence (P01116 with tags, fused parts or gaps isoform P01116-2 G12C): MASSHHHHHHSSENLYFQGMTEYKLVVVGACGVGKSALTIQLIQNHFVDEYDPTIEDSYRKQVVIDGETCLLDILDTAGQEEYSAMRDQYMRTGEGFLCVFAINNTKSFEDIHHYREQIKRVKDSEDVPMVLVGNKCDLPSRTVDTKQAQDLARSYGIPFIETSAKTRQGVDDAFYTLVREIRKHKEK
Procedure, shortened: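 His-tagged K-Ras4B G12C (aa 1-169), GMPPNP-loaded, preincubated with compound 1 h at 25° C in pH 7.5 Tris buffer with MgCl2, TCEP, Tween 20. cRAF-RBD (aa 50-132) and Alpha reagents then added for 1.5 h; Alpha signal normalised to DMSO (0%) and GDP-bound KRAS (100%); IC50 from dose titration.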

[3] = IC50, GMPPNP-bound KRAS G12C incubated with compound 25° C. 1 hour
[4] = GMPPNP-bound KRAS G12C incubated with compound 25° C. 1 hour, read-out: IC50

Compound	IC50 [1] [nM]	IC50 [2, 3] [nM]	IC50 [2, 4] [nM]
CO[C@H]1CC[C@H](NC/C=C/C(=O)Nc2c(F)cc(C(=O)c3c(C)n4c5c(cccc35)-c3c(C(F)(F)F)cc5c(nc(C)n5C)c3OCC4)cc2F)CC1 [Example 25, (E)-N-(2,6-difluoro-4-(1,8,9-trimethyl-6-(trifluoromethyl)-12, 13-dihydro-8H-imidazo[4″,5″:3′,4′]benzo[1′,2′:7,8][1,4]oxazocino[6,5,4-hi]indole-2-carbonyl)phenyl)-4-(((1,4r)-4-methoxycyclohexyl)amino)but-2-enamide]	24	39	–
CO[C@H]1CC[C@H](NC/C=C/C(=O)Nc2c(F)cc(C(=O)c3cn4c5c(cccc35)-c3c(C)cc5c(nc(C)n5C)c3OCC(F)(F)C4)cc2F)CC1 [Example 26, (E)-N-(4-(13,13-difluoro-6,8,9-trimethyl-13,14-dihydro-8H,12H-imidazo[4″,5″:3′,4′]benzol[1′,2′:8,9][1,5]oxazonino[7,6,5-hi]indole-2-carbonyl)-2,6-difluorophenyl)-4-(((1r,4r)-4-methoxycyclohexyl)amino)but-2-enamide]	130	100	–
CO[C@H]1CC[C@H](NC/C=C/C(=O)Nc2c(F)cc(C(=O)c3cn4c5c(cccc35)-c3c(C)cc5c(nc(C)n5C)c3CCC4)cc2F)CC1 [Example 27, (E)-N-(2,6-difluoro-4-(6,8,9-trimethyl-8,11,12,13-tetrahydroimidazo[4″,5″:3′,4′]benzo[1′,2′:4,5]azocino[3,2,1-hi]indole-2-carbonyl)phenyl)-4-(((1r,4r)-4-methoxycyclohexyl)amino)but-2-enamide]	88	64	–
CO[C@H]1CC[C@H](NC/C=C/C(=O)Nc2c(F)cc(C(=O)c3cn4c5c(cccc35)-c3c(C(F)(F)F)cc5c(nc(C)n5C)c3CCC4)cc2F)CC1 [Example 28, (E)-N-(4-(8,9-dimethyl-6-(trifluoromethyl)-8,11,12,13-tetrahydroimidazo[4″,5″:3′,4′]benzo[1′,2:4,5]azocino[3,2,1-hi]indole-2-carbonyl)-2,6-difluorophenyl)-4-(((1r,4r)-4-methoxycyclohexyl)amino)but-2-enamide]	17	53	–
CO[C@H]1CC[C@H](NC/C=C/C(=O)Nc2c(F)cc(C(=O)c3cn4c5c(cccc35)-c3c(C(F)(F)F)cc5c(nc(C)n5C)c3CCCC4)cc2F)CC1 [Example 29, (E)-N-(4-(8,9-dimethy 1-6-(trifluoromethyl)-11,12,13,14-tetrahydro-8H-imidazo[4″,5″:3′,4′]benzo[1′,2:4,5]azonino[3,2,1-hi]indole-2-carbonyl)-2,6-difluorophenyl)-4-(((1r,4r)-4-methoxycyclohexyl)amino)but-2-enamide]	53	220	–
CO[C@H]1CC[C@H](NC/C=C/C(=O)Nc2c(F)cc(C(=O)c3cc4c5c(cccn35)-c3c(C)cc5c(nc(C)n5C)c3OCC4)cc2F)CC1 [Example 32, (E)-N-(2,6-difluoro-4-(7,9,10-trimethyl-13,14-dihydro-9H-imidazo[4″,5″:5′,6]benzo[1′,2′:2,3]oxocino[4,5,6-hi]indolizine-2-carbonyl)phenyl)-4-(((1,4r)-4-methoxycyclohexyl)amino)but-2-enamide]	86	–	27
Cc1nc2c3c(c(C(F)(F)F)cc2n1C)-c1cccn2c(C(=O)c4cc(F)c(NC(=O)/C=C/CNC(C)(C)C)c(F)c4)cc(c12)CCO3 [Example 33]	5	–	14
Cc1nc2c3c(c(C(F)(F)F)cc2n1C)-c1cccn2c(C(=O)c4cc(F)c(NC(=O)/C=C/CNC5CCOCC5)c(F)c4)cc(c12)CCO3 [Example 34]	7	–	12
Cc1nc2c3c(c(C(F)(F)F)cc2n1C)-c1cccn2c(C(=O)c4cc(F)c(NC(=O)/C=C/CNC5(C)CC5)c(F)c4)cc(c12)CCO3 [Example 35]	14	–	13
Cc1nc2c3c(c(C(F)(F)F)cc2n1C)-c1cccn2c(C(=O)c4cc(F)c(NC(=O)/C=C/CNC5CCP(C)(=O)CC5)c(F)c4)cc(c12)CCO3 (centres unmarked) [Example 36]	150	–	13
